The target of the first assay is T1, human GPR120 (Homo sapiens, UniProt Q5NUL3).
T1 construct: host or cells: HEK293 cells co-expressing Gqi5
T1 sequence (Q5NUL3 1-361): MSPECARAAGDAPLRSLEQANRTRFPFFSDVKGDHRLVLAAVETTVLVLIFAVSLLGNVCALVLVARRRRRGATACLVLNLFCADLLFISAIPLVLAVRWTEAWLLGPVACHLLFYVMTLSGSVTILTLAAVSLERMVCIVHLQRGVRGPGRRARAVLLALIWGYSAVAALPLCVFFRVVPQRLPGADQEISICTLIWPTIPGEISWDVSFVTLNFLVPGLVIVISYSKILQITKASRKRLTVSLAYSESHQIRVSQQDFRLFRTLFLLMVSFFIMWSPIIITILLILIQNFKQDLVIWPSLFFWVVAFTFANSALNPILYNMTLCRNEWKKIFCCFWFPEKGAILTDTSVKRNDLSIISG
In words: Intracellular Ca2+ assay in human GPR120 stable cell line (FLIPR Calcium 4 dye, Flexstation). The class given is cell-based. To be noted: % activity at 2.5 µM compared to the maximal activity of the compound of Example 25 at 2.5 µM (=100%); HEK293 cells co-expressing Gqi5. As to the method:
Human GPR120 stable cell line was purchased from Multispan Inc (26219 Eden Landing Road, Hayward, CA94545). This GPR120 cell line was generated in HEK293 cells co-expressing Gqi5. In this cell line, the Flag epitope tag (DYKDDDDK) was fused to the amino terminus of human GPR120 protein.
The concentration of intracellular Ca^2+ was measured as described below. Human GPR120 cells were plated in 96 well plates (Poly-D-Lysine coated black/clear Plate, Greiner Bio-One) at 70,000 cells per well and cultured overnight in conditions of 37°C and 5% CO2. A Ca^2+ assay dye stock solution was prepared by adding 10 mL of assay buffer (HBSS/20mM HEPES, pH 7.4) to FLIPR Calcium 4 Assay Bulk Kit (Molecular Devices). The 10 mL of Ca^2+ assay dye solution was prepared by further diluting 0.5 mL of Ca^2+ assay dye stock solution with 10 mL of assay buffer. The medium of the cells was removed and immediately 100 µL of the Ca^2+ assay dye solution was dispensed into each well followed by incubation at 37°C and 5% CO2 for 50 minutes to incorporate the Ca^2+ dye into the cells. The cell plate was then placed in the Flexstation (Molecular Devices) for 20 minutes at 37°C. Compounds were dissolved in 100% DMSO and diluted to desired concentrations with assay buffer and placed in the Flexstation simultaneously with the cell plate for 20 minute incubation at 37°C prior to reading. Fluorescence intensity was measured immediately following compound addition (25 µL/well) on the Flexstation at an excitation wavelength of 485 nm and an emission wavelength of 525 with 515 nm auto cutoff. The resulting increase in fluorescence intensities corresponds to increases in intracellular Ca^2+ levels.
Compounds were dissolved in 100% DMSO to a concentration of 20 mM to provide stock solutions. To determine activity against human GPR120, compounds were added with human GPR120 stably expressing cells (described above), at eight desired concentrations ranging from 0.00001 to 20 µM, in 96 well plates and fluorescence intensities were measured for 90 seconds with 2-second intervals. An EC50 value (concentration of the GPR120 agonist where 50% of the agonist's maximal activity is observed) was calculated using the changes (Max-Min) of fluorescence intensity.
To determine percent activity for a tested compound, the fluorescence intensity value obtained at a particular concentration were compared to the maximal fluorescence intensity value obtained for reference compound GW9508 (4-[[(3-phenoxyphenyl)methyl]amino]benzene propanoic acid; British Journal of Pharmacology 2006 148, 619-628) or the compound of Example 25. When GW9508 was used as the reference compound, the maximal activity of GW9508 at 6.7µM was designated as 100% activity. When the compound of Example 25 was used as the reference compound, the maximal activity of the compound of Example 25 at 2.5 µM was designated as 100% activity. Typically, the GW9508 activity reached a maximum at a concentration of approximately 6.7 µM and typically the compound of Example 25 reached a maximum activity at approximately 2.5µM. […]
For the molecule “2-(4-((5-fluoro-3H-spiro[benzofuran-2,1'-cyclopentane]-7-yl)methoxy)phenyl)cyclopropanecarboxylic acid [Example 165]”, the “% Activity (Ex. 25 Reference Compound)” value is on record as 158.08%.

Consider `CC1(C)Cc2cc(F)cc(COc3c(F)cc(CC4CC4C(=O)O)cc3F)c2O1` (single isomer, unassigned) [Example 184A, 2-(3,5-difluoro-4-((5-fluoro-2,2-dimethyl-2,3-dihydrobenzofuran-7-yl)methoxy)benzyl)cyclopropanecarboxylic acid], for which the “% Activity (Ex. 25 Reference Compound)” value is 95.58%.

Consider `CC1(C)Cc2cc(F)cc(COc3c(F)cc(CC4CC4C(=O)O)cc3F)c2O1` (single isomer, unassigned) [Example 184B, 2-(3,5-difluoro-4-((5-fluoro-2,2-dimethyl-2,3-dihydrobenzofuran-7-yl)methoxy)benzyl)cyclopropanecarboxylic acid], for which the “% Activity (Ex. 25 Reference Compound)” value is reported as 130.66%.

The same assay, now with this note: HEK293, % activity at 5 µM compared to the maximal activity of GW9508 at 6.7 µM (=100%); HEK293 cells co-expressing Gqi5; read-out: %Activity (GW9508 Reference Compound).
On to `CC(Cc1cc(F)c(OCc2cccc3c2OC(C)(C)CC3)c(F)c1)C(=O)O` (centres unmarked) [Example 2, 3-(4-((2,2-dimethylchroman-8-yl)methoxy)-3,5-difluorophenyl)-2-methylpropanoic acid], for which the activity at 5 µM came out at 135%.

`CC(Cc1cc(F)c(OCc2cccc3c2OCC3)c(F)c1)C(=O)O` (centres unmarked) [Example 3, 3-(4-((2,3-dihydrobenzofuran-7-yl)methoxy)-3,5-difluorophenyl)-2-methylpropanoic acid]: the activity at 5 µM worked out at 124%.

Turning to `Cc1cc(COc2ccc(CC(C)C(=O)O)cc2)c2c(c1)CC(C)(C)O2` (centres unmarked) [Example 4, 2-methyl-3-(4-((2,2,5-trimethyl-2,3-dihydrobenzofuran-7-yl)methoxy)phenyl)propanoic acid], the activity at 5 µM amounted to 111%.

`Cc1cc(COc2c(F)cc(CC(C)C(=O)O)cc2F)c2c(c1)CC(C)(C)O2` (centres unmarked) [Example 5, 3-(3,5-difluoro-4-((2,2,5-trimethyl-2,3-dihydrobenzofuran-7-yl)methoxy)phenyl)-2-methylpropanoic acid]: the activity at 5 µM was 149%.

On to `Cc1cc(CC(C)C(=O)O)ccc1OCc1cc(F)cc2c1OC(C)(C)C2` (centres unmarked) [Example 6, 3-(4-((5-fluoro-2,2-dimethyl-2,3-dihydrobenzofuran-7-yl)methoxy)-3-methylphenyl)-2-methylpropanoic acid], for which the activity at 5 µM turned out to be 147%.

For the molecule `COc1cc(CC(C)C(=O)O)ccc1OCc1cc(F)cc2c1OC(C)(C)C2` (centres unmarked) [Example 7, 3-(4-((5-fluoro-2,2-dimethyl-2,3-dihydrobenzofuran-7-yl)methoxy)-3-methoxyphenyl)-2-methylpropanoic acid], the activity at 5 µM worked out at 168%.

As to `CC(Cc1ccc(OCc2cc(F)cc3c2OC(C)(C)C3)c(F)c1)C(=O)O` (centres unmarked) [Example 8, 3-(3-fluoro-4-((5-fluoro-2,2-dimethyl-2,3-dihydrobenzofuran-7-yl)methoxy)phenyl)-2-methylpropanoic acid], the activity at 5 µM worked out at 135%.

Consider `Cc1cc(CC(C)C(=O)O)ccc1OCc1cc(Cl)cc2c1OC(C)(C)C2` (centres unmarked) [Example 11, 3-(4-((5-chloro-2,2-dimethyl-2,3-dihydrobenzofuran-7-yl)methoxy)-3-methylphenyl)-2-methylpropanoic acid], for which the activity at 5 µM came out at 124%.

For `CC(Cc1ccc(OCc2cc(Cl)cc3c2OC(C)(C)C3)c(Cl)c1)C(=O)O` (centres unmarked) [Example 12, 3-(3-chloro-4-((5-chloro-2,2-dimethyl-2,3-dihydrobenzofuran-7-yl)methoxy)phenyl)-2-methylpropanoic acid], the activity at 5 µM was 116%.

`CC(Cc1cc(Cl)c(OCc2cc(Cl)cc3c2OC(C)(C)C3)c(Cl)c1)C(=O)O` (centres unmarked) [Example 14, 3-(3,5-dichloro-4-((5-chloro-2,2-dimethyl-2,3-dihydrobenzofuran-7-yl)methoxy)phenyl)-2-methylpropanoic acid]: the activity at 5 µM was found to be 84.5%.

Take `COc1cc(CC(C)C(=O)O)ccc1OCc1cc(Cl)cc2c1OC(C)(C)C2` (centres unmarked) [Example 15, 3-(4-((5-chloro-2,2-dimethyl-2,3-dihydrobenzofuran-7-yl)methoxy)-3-methoxyphenyl)-2-methylpropanoic acid]: the activity at 5 µM stood at 109%.

Turning to `CC(Cc1ccc(OCc2cccc3c2CC(C)(C)O3)cc1)C(=O)O` (centres unmarked) [Example 17, 3-(4-((2,2-dimethyl-2,3-dihydrobenzofuran-4-yl)methoxy)phenyl)-2-methylpropanoic acid], the activity at 5 µM was 72.2%.

In the case of `CC(Cc1cc(F)c(OCc2cc(F)cc3c2OC(C)(C)C3)c(F)c1)C(=O)O` (centres unmarked) [Example 18, 3-(3,5-difluoro-4-((5-fluoro-2,2-dimethyl-2,3-dihydrobenzofuran-7-yl)methoxy)phenyl)-2-methylpropanoic acid], the activity at 5 µM amounted to 130%.

Regarding `CC1(C)Cc2cc(F)cc(COc3c(F)cc(C4CC4C(=O)O)cc3F)c2O1` (centres unmarked) [Example 19, 2-(3,5-difluoro-4-((5-fluoro-2,2-dimethyl-2,3-dihydrobenzofuran-7-yl)methoxy)phenyl)cyclopropanecarboxylic acid], the activity at 5 µM is 126%.

Take `CC1Cc2cccc(COc3c(F)cc(CCC(=O)O)cc3F)c2O1` (centres unmarked) [Example 20]: the activity at 5 µM is 138%.

Regarding `CC(Cc1cc(F)c(OCc2cccc3c2CC(C)(C)O3)c(F)c1)C(=O)O` (centres unmarked) [Example 21, 3-(4-((2,2-dimethyl-2,3-dihydrobenzofuran-4-yl)methoxy)-3,5-difluorophenyl)-2-methylpropanoic acid], the activity at 5 µM came out at 113%.

With `CC1(C)Cc2c(COc3c(F)cc(C4CC4C(=O)O)cc3F)cccc2O1` (centres unmarked) [Example 22, 2-(4-((2,2-dimethyl-2,3-dihydrobenzofuran-4-yl)methoxy)-3,5-difluorophenyl) cyclopropanecarboxylic acid], the activity at 5 µM stood at 126%.

`CC(Cc1cc(F)c(OCc2cccc3c2OC(C)(C)C3)c(F)c1)C(=O)O` (centres unmarked) [Example 23, 3-(4-((2,2-dimethyl-2,3-dihydrobenzofuran-7-yl)methoxy)-3,5-difluorophenyl)-2-methylpropanoic acid]: the activity at 5 µM was determined as 113%.

Take `CC1(C)Cc2cccc(COc3c(F)cc(C4CC4C(=O)O)cc3F)c2O1` (centres unmarked) [Example 24, 2-(4-((2,2-dimethyl-2,3-dihydrobenzofuran-7-yl)methoxy)-3,5-difluorophenyl) cyclopropanecarboxylic acid]: the activity at 5 µM amounted to 100%.

For the molecule `CC1(C)Cc2cccc(COc3c(F)cc(CCC(=O)O)cc3F)c2O1` [Example 25, 3-(4-((2,2-dimethyl-2,3-dihydrobenzofuran-7-yl)methoxy)-3,5-difluorophenyl)propanoic acid], the activity at 5 µM was 102%.

Regarding `CC(Cc1ccc(OCc2cc(Cl)cc3c2OC(C)(C)C3)cc1Cl)C(=O)O` (centres unmarked) [Example 26, 3-(2-chloro-4-((5-chloro-2,2-dimethyl-2,3-dihydrobenzofuran-7-yl)methoxy)phenyl)-2-methylpropanoic acid], the activity at 5 µM came to 164%.

For the molecule `CC1(C)Cc2c(F)ccc(COc3c(F)cc(C4CC4C(=O)O)cc3F)c2O1` (centres unmarked) [Example 27, 2-(3,5-difluoro-4-((4-fluoro-2,2-dimethyl-2,3-dihydrobenzofuran-7-yl)methoxy)phenyl)cyclopropanecarboxylic acid], the activity at 5 µM is 144%.

The same assay, now with this note: typical value, reference compounds of the Ca2+ assay.
As to `CC1(C)Cc2cccc(COc3c(F)cc(CCC(=O)O)cc3F)c2O1` [Example 25, 3-(4-((2,2-dimethyl-2,3-dihydrobenzofuran-7-yl)methoxy)-3,5-difluorophenyl)propanoic acid], the “concentration at which activity reached a maximum” value was “approximately 2.5 µM”.

(Values after patent EP2582674B1 (Cymabay Therapeutics, Inc., priority 2010, dated 2011).)
